Source: US9845318B2, “Class of near infrared optical probes for biological applications” (The University of Akron, priority 2012, dated 2017)
Counter-ions that a name gives are not always drawn.

Experiments:
[1] = test system: zebrafish; assay: Imaging of Zn^2+ in developing zebrafish, probe added to fish tank water; assay type: in vivo
Text: The most attractive application for zinc probes is sensing Zn^2+ in living organisms. Our ability to discover the fundamental roles of Zn^2+ is dependent on the tools available to detect the Zn^2+ population/concentration in living biological systems. Zebrafish has recently become an important model organism for the study of vertebrate imaging. This is because the embryos of zebrafish are transparent, allowing for clear observation of their organs without the need for dissection. The optical transparancy of zebrafish, therefore, provides a convenient organism for detection of ions by fluorescence microscopy. […] Encouraged by the cell permeability (FIG. 20), Zinhbo-5 was thus examined in developing zebrafish of various stages by adding Zinhbo-5 to fish tank water (treatment lasted for one hour at room temperature). […] However, there were more labeling in other parts of the body in the Zn^2+ treated larvae (FIG. 22 at I). […] Herein the in vivo recognition of the zinc-rich organ in zebrafish larva could be seen with higher image quality by using Zinhbo-5. […] The in vivo results with sensor Zinhbo-5 are somewhat different in light of the previously reported data where zinc was detected using fluorescent sensors in zebrafish. In those studies, fluorescent labeling was concentrated in the heart ventricle of embryos (50 hpf), and scattered throughout the body in larvae (4-5-day old). Whereas Zinhbo-5 labeling is confined mainly to the nose and neuromasts of the lateral line system during this period.
All images show lateral views of live embryos (anterior to the left and dorsal up). The labeled cells are scattered throughout the embryo at 17 hpf (panels A and B). Panel B is a higher magnification of the mid-trunk region of the embryo shown in panel A. Arrowheads in panel B indicate several labeled cells. Zinhbo-5 labeling becomes more restricted as development proceeds. At 50 hpf, Most labeled cells are concentrated in the nose neuromasts of the lateral line system (panels C-F). Arrowheads and asterisks in panels C and D point to some neuromasts in the posterior lateral line system on this side and the other side of the body trunk, respectively. Panels E and F are higher magnifications of the head region of the labeled embryos. Embryos in panels D and F had been treated with Zn2+ before Zinhbo-5 labeling. (Abbreviations: io2, infraorbital line neuromast 2; ml1, middle line neuromast 1; n, nose; o1 and o2, otic lateral line neuromasts 1 and 2; po1, postorbital neuromast 1; so2, supraorbital line neuromast 2).
All images show lateral views (anterior to the left and dorsal up) of live zebrafish larvae. Panels A-C are low magnification images showing almost the entire fish; panels D-F show higher magnification of the head region, while panels G-J show higher magnification of the mid-trunk region of the fish. Panels A, D and G are from larvae labeled with Zinhbo-5. Panels B, E and I are from larvae that had been treated with zinc before exposed to Zinhbo-5. Panels C, F and J are from larvae that were simultaneously treated with Zinhbo-5 and TPEN. […] (Abbreviations: io1 and io3, infraorbital line neuromasts 1 and 3; so1, supraorbital line neuromast 1; ye, yolk extension. Other abbreviations are the same as in FIG. 9).

[2] = test system: Hela cells; assay: Fluorescence imaging of intracellular Zn^2+ in Hela cells; assay type: cell-based
Experimental: The Zinhbo-5 sensor was applied on Hela cells, in order to examine whether the probe could be useful in living systems under a confocal laser scanning microscopy. […] After three times washing with PBS buffer, the cells were incubated with ZnCl2 (10 μM) in the medium for another 30 min at 37° C., and the fluorescence in living cells was much brighter (FIG. 20, at D).
Hela cells were cultured in DEME (Invitrogen) supplemented with 10% FCS (Invitrogen). One day before imaging, cells were seeded in 24-well flat-bottomed plates. The next day, the Hela cells were incubated with 10 μM sensor Zinhbo-5 for 0.5 h at 37° C. under 5% CO2 and then washed with phosphate-buffered saline (PBS) three times before incubating with 10 μM ZnCl2 for another 0.5 h, cells were rinsed with PBS three times again, then the fluorescence imaging of intracelluar Zn2+ was observed under Nikon eclipase TE2000-5 inverted fluorescence microscopy with a 32× objective lens. The Hela cells only incubated with 10 μM Zinhbo-5 for 0.5 hour at 37° C. under 5% CO2 was as a control. For all images, the microscope settings, such as brightness, contrast, and exposure time were held constant to compare the relative intensity of intracellular Zn^2+ fluorescence.

[3] = Determination of association constant by fluorescence titration with Zn^2+; assay type: binding
Experimental: (§1) The NIR emission intensity at ˜710 nm was linearly proportional to the Zn^2+ concentration (linearly dependent coefficient: R^2=0.9982) (FIGS. 18 and 19). […] The association constants K11 and K12 were determined by a nonlinear least-squares analysis of fluorescence intensity versus Zn^2+ ion concentration to be 3.21×10^5 M^−1 and 3.88×10^10 M^−2, respectively.
An approximate linear fit formula is used to calculate the single association constant Kass1 and Kass2:
[formula] where n is the number of equivalents of the added metal ions, F0 is the fluorescence intensity of the free sensor, and F1 is the fluorescence intensity in the presence of excess cation, C0 is the initial concentration of Zinhbo-5. Kass1 and Kass2 can be obtained by a linear analysis of (F1−F)(x) versus

[4] = Fluorescence response of the sensor in solution upon addition of Zn^2+; assay type: physicochemical
Text: Free ligand Zinhbo-5 gave only weak green fluorescence at 520 and 560 nm. The green fluorescence signal was increased gradually upon addition of Zn^2+ (FIGS. 12 and 13). In addition, a new emission peak at ˜763 nm occurred, which has a very large Stokes shift (˜285 nm). The new emission band was attributed to the keto form arising from the ESIPT process (FIGS. 14 and 15). […] This is because the substituent at the 5-position of benzoxazole unit exerts less electronic interferences to the anticipated ESIPT process (as shown in structure 5). […] The stronger ESIPT from 9 could be associated with the increased rigidity, when two ligands were assembled together via chelation with Zn^2+ cation.
as §1
All the solvents were of analytic grade. The salt used in stock solutions of metal ions were Zn(OAc)2.2H2O, Co(OAc)2.4H2O, Ni(OAc)2.4H2O, Cu(OAc)2.H2O, MgSO4, Cd(OAc)2.6H2O, Mn(OAc)2.4H2O, FeCl2. 4H2O, CaCl2, Na2SO4, Hg(OAc)2, AgNO3, Pb(OAc)2.3H2O, KNO3. Water used was ultra filter deionized and purchased from fisher. HEPES (2-[4-(2-hydroxyethyl)-1-piperazinyl]-ethanesulfonic acid) was from Fisher. NMR spectra were collected on a Varian 300 Gemini spectrometer. Mass spectrometric data were obtained on a HP1100LC/MSD mass spectrometry. UV-Vis spectra were acquired on a Hewlett-Packard 8453 diode-array spectrometer. Fluorescence spectra were obtained on a HORIBA Jobin Yvon NanoLog spectrometer. All pH measurements were made with a model RS232 meter. The fluorescence quantum yield were obtained using quinine sulfate as the standard (Φ=0.53, 0.1 M H2SO4). Cell fluorescence imaging were obtained on a Nikon Eclipse TE2000-5 fluorescence microscope, and analyzed by MetaFluor software (Universal Imaging Corp.).

[5] = 0.1 M H2SO4; cited from earlier work

CC(C)(C)c1ccc2oc(-c3cc(O)c(-c4nc5c(CN(Cc6ccccn6)Cc6ccccn6)cccc5o4)cc3O)nc2c1 [Zinhbo-5]
distribution of labeled zinc-concentrated cells ([1]; 17 hpf, one hour treatment at room temperature): distributed throughout the embryos
distribution of labeled zinc-concentrated cells ([1]; 50 hpf and 72 hpf): mainly located in the nose and neuromasts of the lateral line system
labeling pattern in older larvae ([1]; 82 hpf): remained similar
labeling in lateral line structures, exogenous Zn^2+ treated vs untreated larvae ([1]; 82 hpf, Zn^2+ 20 μM): no obvious difference
labeling in larvae treated with TPEN ([1]; 82 hpf, zinc chelator TPEN): almost completely eliminated
fluorescence inside living cells, probe only ([2]; 10 μM probe, 30 min, 37° C.): very weak fluorescence
cell viability in bright-field transmission image ([2]; cells treated with probe and Zn^2+): viable throughout the imaging experiments
toxicity to the cell culture ([2]; imaging conditions): primarily nontoxic
cell permeability ([2]; living cells): cell-permeable
fluorescence in living cells after incubation with ZnCl2 ([2]; then ZnCl2 (10 μM), 30 min, 37° C.): much brighter
emission intensity after subsequent addition of TPEN ([2]; zinc chelator TPEN added after Zn^2+): reverted the emission intensity to that of the zinc-free system
association constant K12 / overall association constant Kass ([3]; 2:1 host-guest complex, fluorescence at 710 nm): 3.88×10^10 M^−2
Kd (sensitivity for Zn^2+) ([3]; aqueous solution): 2.58 nM^2
association constant Kass2 ([3]; fluorescence at 710 nm): 121000 M⁻¹
association constant K11 / Kass1 ([3]; fluorescence intensity versus Zn^2+ concentration, 710 nm): 321000 M⁻¹
new emission peak upon addition of Zn^2+ ([4]; FIGS. 12 and 13, keto form ESIPT emission): ~763 nm
fluorescence quantum yield Φfl upon addition of one equivalent Zn2+ ([4]; HEPES buffer solution with 50% EtOH, 1 equivalent Zn2+): 0.17
fluorescence quantum yield Φfl of free ligand ([4]; HEPES buffer solution with 50% EtOH, no Zn^2+): 0.081
fluorescence enhancement upon zinc binding (green emission) ([4]; aqueous solution): about 14 fold
NIR emission strength upon zinc binding, comparison ([4]; at ~763 nm, THF, excitation 480 nm (FIG. 14), Zinhbo-5 vs Zinhbo-1, 9 vs crystal 10): quite stronger NIR emission
Stokes shift of the new emission peak ([4]; peak at ~763 nm): ~285 nm

C=C[C@H]1C[N@@]2CC[C@H]1C[C@H]2[C@H](O)c1ccnc2ccc(OC)cc12 [quinine sulfate]
fluorescence quantum yield of standard [5]: 0.53
